Results published in patent US20240277798A1, “CYCLOSPORINE COMPOSITIONS AND METHODS OF USE” (Bacainn Biotherapeutics, Ltd., priority 2021, published 2024).

Tests used:
SGF FeSSIF stability = assay type: in vitro ADME; settings: 10 μM, 37° C., 6 hours, predicted
Procedure: SGF FeSSIF Stability Procedure. BT090 (10 μM) was incubated in duplicate at 37° C. for a total of 6 hours in simulated gastric fluid (SGF) (Ricca, Arlington, TX) and Fed State Simulated Intestinal Fluid (FeSSIF) (Biorelevant, London, UK). The reactions were initiated by spiking the test articles (1 mM water stock solutions) in their respective buffers. At selected time points (0, 0.5, 1, 2, 4, and 6 hours), a 50 μL aliquot was taken from the incubation mixtures and frozen at −80° C. At the end of the incubation period, 200 μL of 50:50 acetonitrile:water containing the internal standards (IS) were added to every tube and vortexed thoroughly. The 0 hour samples were prepared in pre-quenched SGF or FeSSIF. All quenched samples were then submitted to bioanalysis for LC-MS/MS quantification.
(§1) Bioanalysis. BT090 samples were analyzed by LC-MS/MS using a Thermo Accela UPLC and a Thermo Q-Exactive mass spectrometer. The [M+H]+ adducts of the compounds and internal standards were monitored using positive mode electrospray ionization in exact mass mode. […]
SGF FeSSIF Stability Procedure. […] All quenched samples are then submitted to bioanalysis for LC-MS/MS quantification.
(§2) Bioanalysis. […] The [M+H]+ adducts of the compounds and internal standards are monitored using positive mode electrospray ionization in exact mass mode. […]

[1] = Feces stability (rat feces homogenate); assay type: in vitro ADME, Sprague-Dawley rat; settings: 10 μM, 37° C., 24 hours, predicted
Procedure: Feces stability. Immediately prior to the study, male Sprague-Dawley rat feces were collected overnight over a mix of dry and wet ice. Feces were then homogenized in phosphate buffer at pH 6.5 and filtered to remove particles. BT090 ([…]) was incubated in duplicate at 37° C. for a total of 24 hours in the freshly prepared rat feces homogenate. At selected time points (0.5, 2, 6 and 24 hours), a 25 μL aliquot was taken from the incubation mixtures and quenched with 225 μL of acetonitrile containing the internal standards (IS). Samples were then centrifuged to pellet the precipitated proteins and the supernatants were diluted 5-fold. The 0 hour samples were prepared in pre-quenched feces homogenate towards the end of the incubation period. All quenched samples were then submitted to bioanalysis for LC-MS/MS quantification.
as §1
Feces stability. […] All quenched samples are then submitted to bioanalysis for LC-MS/MS quantification.
as §2

CC[C@@H]1NC(=O)[C@H]([C@H](O)[C@H](C)CCCCCC(=O)O)N(C)C(=O)[C@H](C(C)C)N(C)C(=O)[C@H](CC(C)C)N(C)C(=O)[C@H](CC(C)C)N(C)C(=O)[C@@H](C)NC(=O)[C@H](C)NC(=O)[C@H](CC(C)C)N(C)C(=O)[C@H](C(C)C)NC(=O)[C@H](CC(C)C)N(C)C(=O)CN(C)C1=O [BT070]
stable: stability in simulated gastric fluid (SGF) (SGF FeSSIF stability) | stability in simulated intestinal fluid (FeSSIF) (SGF FeSSIF stability) | stability in fresh rat fecal homogenate [1]
